According to patent US5932709A (University of Michigan, priority 1997, dated 1999):

Columns and labels:
[1] = Murine B16 melanoma model in vivo; design: species or system mouse (B6D2F1); settings: mouse, in vivo, ip; i.p. daily×5
Method in brief: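 B6D2F1 mice inoculated i.p. on day 0 with B16 melanoma brei taken from s.c. tumors; MTD determined in non-tumored mice when dosing is unknown. Activity expressed as T/C% of mean survival, with 60-day survivors counted as cures.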

in vivo = settings: mouse, in vivo, ip
From the text: For all the models, the vehicle used to deliver the analog of interest was isotonic saline.
For the MX-1 human breast tumor xenograft models, the following procedure was used. Nude mice are implanted s.c. by trocar with fragments of MX-1 mammary carcinomas harvested from s.c. growing MX-1 tumors in nude mice hosts. When tumors are approximately 5 mm×5 mm in size (usually about ten days after inoculation), the animals are pair-matched into treatment and control groups. Each group contains ten tumored mice, each of which is ear-tagged and followed individually throughout the experiment. The administration of drugs or vehicle begins the day the animals are pair-matched (day 1). The doses, route of drug administration and schedule are selected as appropriate for the study in question. If the MTD dose of an agent is not known, it is determined in an initial dosing experiment in non-tumored mice. In a typical experiment, drugs are given at their MTD and 1/2 MTD doses i.p. on a daily×5 schedule.
The experiment is usually terminated when control tumors reach a size of 2-3 g. Mice are weighed twice weekly, and tumor measurements are taken by calipers twice weekly, starting on day 1. These tumor measurements are converted to mg tumor weight by a well known formula, and from these calculated tumor weights the termination date can be determined. Upon termination, all mice are weighed, sacrificed, and their tumors excised. Tumors are weighed, and the mean tumor weight per group is calculated.
Some drugs cause tumor shrinkage in the MX-1 model. With these agents, the final weight of a given tumor is subtracted from its own weight at the start of the treatment on day 1. This difference divided by the initial tumor weight is the % shrinkage. A mean % tumor shrinkage can be calculated from data from the mice in a group that experienced MX-1 regressions. If the tumor completely disappears in a mouse, this is considered a complete regression or complete tumor shrinkage. If desired, mice with partial or total tumor regressions can be kept alive past the termination date to see whether they live to become long term, tumor-free survivors.
Note that in the following table the abbreviation SR refers to tumor shrinkage rate, while those entries followed by a superscripted `2` are tumor growth inhibition rates, not tumor shrinkage rates.

[2] = Murine P388 leukemia model in vivo; design: species or system mouse (B6D2F1); settings: mouse, in vivo, ip; i.p. daily×5
Method in brief: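 B6D2F1 mice inoculated i.p. with 1×10^6 P388 leukemia cells (from ascites, resuspended in saline) on day 0; dosing at MTD from dose-finding in non-tumored mice where no dosing information exists. Mean survival of treated over control mice gives T/C×100% (increase in life span).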

[3] = tested on: human lung tumor xenograft; assay: Human lung tumor xenograft model; type: in vivo, human tumor in nude mice
From the text: (§1) For the human lung and prostate tumor xenograft models the following procedure was used. Nude mice were implanted s.c. by trocar with fragments of human lung or prostate carcinomas harvested from s.c. growing tumors in nude mice hosts. When tumors were approximately 5 mm×5 mm in size (usually ten to fourteen days after inoculation), the animals were pair-matched into treatment and control groups. Each group contained 10 tumored mice, each of which was ear-tagged and followed individually throughout the experiment. […] The doses, route of drug administration and schedule were selected as appropriate for the study in question. (See above protocol). […] Topotecan was run as a positive control at its MTD dose on a daily×5 and a daily×1 schedule. Male nude mice were used for both prostate studies.
(§2) Mice are weighed twice weekly, and tumor measurements were taken by calipers twice weekly, starting on day 1.
(§3) Some drugs cause tumor shrinkage in the human tumor xenograft models. […] A mean % tumor shrinkage can be calculated from the data from the mice in a group that experienced tumor regressions.

[4] = tested on: human prostate tumor xenograft; assay: Human prostate tumor xenograft model; type: in vivo, human tumor in nude mice
From the text: as §1, §2, §3

CC[C@@]1(O)C(=O)OCc2c1cc1n(c2=O)Cc2c-1nc1ccccc1c2CO[C@@H]1C=C[C@H](OC(C)=O)[C@@H](COC(C)=O)O1 [HAR4, 7-[4,6-di-O-acetyl-2,3-dideoxy-α-D-erythro-hex-2-enopyranosyl]oxymethylcamptothecin]
MTD [1]: 20 mg/kg
MTD (in vivo): 10 mg/kg

CC[C@@]1(O)C(=O)OCc2c1cc1n(c2=O)Cc2c-1nc1ccccc1c2CO[C@@H]1C=C[C@H](O[C@H]2O[C@H](CO)[C@@H](O)[C@H](O)[C@H]2O)[C@@H](CO)O1 [HAR6, 7-[4-O-(α-D-glucopyranosyl)-2,3-dideoxy-α-D-erythro-hex-2-enopyranosyl]-oxymethylcamptothecin]
MTD [2]: 100 mg/kg
MTD [1]: 100 mg/kg
MTD (in vivo): 100 mg/kg

CC[C@@]1(O)C(=O)OCc2c1cc1n(c2=O)Cc2c-1nc1ccccc1c2CO[C@@H]1C=C[C@H](O)[C@@H](CO)O1 [HAR7, 7-[2,3-dideoxy-α-D-erythro-hex-2-enopyranosyl]-oxymethylcamptothecin]
complete disappearance of tumors (animals) ([3]; 30 mg/kg daily×5): 2
Deaths ([3]; 30 mg/kg × 5 days): 0/10
Shrink (% Tumor Shrinkage Rate) ([3]; 30 mg/kg × 5 days): 100%
Shrink (number of animals) ([3]; 30 mg/kg × 5 days): 2/10
TGI (% Tumor Growth Inhibition Rate) ([3]; 30 mg/kg × 5 days): 67%
TGI (number of animals) ([3]; 30 mg/kg × 5 days): 8/10
Deaths ([3]; 200 mg single ds): 1/10
Shrink (% Tumor Shrinkage Rate) ([3]; 200 mg single ds): 67%
Shrink (number of animals) ([3]; 200 mg single ds): 2/10
TGI (% Tumor Growth Inhibition Rate) ([3]; 200 mg single ds): 64%
TGI (number of animals) ([3]; 200 mg single ds): 7/10
activity against lung xenograft model ([3]; in words): outstanding activity
efficacy, single dose ([3]; single dose, in words): significant tumor growth inhibition
Deaths ([4]; 30 mg/kg × 5 days): 0/10
Shrink (number of animals) ([4]; 30 mg/kg × 5 days): 0/10
TGI (% Tumor Growth Inhibition Rate) ([4]; 30 mg/kg × 5 days): 77%
TGI (number of animals) ([4]; 30 mg/kg × 5 days): 10/10
Deaths ([4]; 100 mg single ds): 0/10
Shrink (% Tumor Shrinkage Rate) ([4]; 100 mg single ds): 20%
Shrink (number of animals) ([4]; 100 mg single ds): 1/10
TGI (% Tumor Growth Inhibition Rate) ([4]; 100 mg single ds): 51%
TGI (number of animals) ([4]; 100 mg single ds): 9/10
Deaths ([4]; 200 mg single ds): 0/10
Shrink (number of animals) ([4]; 200 mg single ds): 0/10
TGI (% Tumor Growth Inhibition Rate) ([4]; 200 mg single ds): 80%
TGI (number of animals) ([4]; 200 mg single ds): 10/10
activity against prostate xenograft model ([4]; in words): outstanding activity
efficacy, single dose ([4]; single dose, in words): significant tumor growth inhibition
